One experiment concerns the target T1, hM3 receptor (Homo sapiens, UniProt P20309).
T1 construct: expressed in transfected cells; host or cells: CHO cells
The experiment can be described thus: Blockade of agonist-mediated calcium release via FLIPR assay. To be noted: CHO cells stably expressing the hM3 receptor, oxotremorine at EC90. It counts as cell-based. An excerpt:
C. Blockade of Agonist-Mediated Calcium Release via FLIPR Assays
Muscarinic receptor subtypes (M1, M3 and M5 receptors), which couple to Gq proteins, activate the phospholipase C (PLC) pathway upon agonist binding to the receptor. As a result, activated PLC hydrolyzes phosphatyl inositol diphosphate (PIP2) to diacylglycerol (DAG) and phosphatidyl-1,4,5-triphosphate (IP3), which in turn generates calcium release from intracellular stores, i.e., endoplasmic and sarcoplasmic reticulum. […] This fluorescence event is measured in real time by the FLIPR, which detects the change in fluorescence from a monolayer of cells cloned with human M1 and M3, and chimpanzee M5 receptors. Antagonist potency can be determined by the ability of antagonists to inhibit agonist-mediated increases in intracellular calcium. […]
To determine antagonist potency, the dose-dependent stimulation of intracellular Ca^2+ release for oxotremorine is first determined so that antagonist potency can later be measured against oxotremorine stimulation at an EC90 concentration. […]
The parameters used for the FLIPR are: exposure length of 0.4 seconds, laser strength of 0.5 watts, excitation wavelength of 488 nm, and emission wavelength of 550 nm. Baseline is determined by measuring the change in fluorescence for 10 seconds prior to addition of agonist. […]

Experiment [1] has as its system ACh-induced bronchoconstriction. As to the kind of experiment: Duration of bronchoprotection in guinea pig model of acetylcholine-induced bronchoconstriction. It counts as in vivo. To be noted: inhalation, 1.5 hours post-dose. The protocol: Determination of Duration of Bronchoprotection in Guinea Pig Model of Acetylcholine-Induced Bronchoconstriction
Groups of six male guinea pigs (Duncan-Hartley (HsdPoc:DH) Harlan, Madison, WI) weighing between 250 and 350 g were individually identified by cage cards. Throughout the study animals were allowed access to food and water ad libitum.
Test compounds were administered via inhalation over 10 minutes in a whole-body exposure dosing chamber (R&S Molds, San Carlos, CA). The dosing chambers were arranged so that an aerosol was simultaneously delivered to 6 individual chambers from a central manifold. Guinea pigs were exposed to an aerosol of a test compound or vehicle (WFI). […] This was measured gravimetrically by comparing pre- and post-nebulization weights of the filled nebulizer.
The bronchoprotective effects of test compounds administered via inhalation were evaluated using whole body plethysmography at 1.5, 24, 48 and 72 hours post-dose.
Forty-five minutes prior to the start of the pulmonary evaluation, each guinea pig was anesthetized with an intramuscular injection of ketamine (43.75 mg/kg), xylazine (3.50 mg/kg) and acepromazine (1.05 mg/kg). […] The depth of anesthesia was monitored and adjusted if the animal responded to pinching of its paw or if the respiration rate was greater than 100 breaths/minute. […]

For orientation: Ki means a dissociation constant, usually derived from enzyme kinetics or from competition with a known ligand.

T1 sequence (P20309 whole entry): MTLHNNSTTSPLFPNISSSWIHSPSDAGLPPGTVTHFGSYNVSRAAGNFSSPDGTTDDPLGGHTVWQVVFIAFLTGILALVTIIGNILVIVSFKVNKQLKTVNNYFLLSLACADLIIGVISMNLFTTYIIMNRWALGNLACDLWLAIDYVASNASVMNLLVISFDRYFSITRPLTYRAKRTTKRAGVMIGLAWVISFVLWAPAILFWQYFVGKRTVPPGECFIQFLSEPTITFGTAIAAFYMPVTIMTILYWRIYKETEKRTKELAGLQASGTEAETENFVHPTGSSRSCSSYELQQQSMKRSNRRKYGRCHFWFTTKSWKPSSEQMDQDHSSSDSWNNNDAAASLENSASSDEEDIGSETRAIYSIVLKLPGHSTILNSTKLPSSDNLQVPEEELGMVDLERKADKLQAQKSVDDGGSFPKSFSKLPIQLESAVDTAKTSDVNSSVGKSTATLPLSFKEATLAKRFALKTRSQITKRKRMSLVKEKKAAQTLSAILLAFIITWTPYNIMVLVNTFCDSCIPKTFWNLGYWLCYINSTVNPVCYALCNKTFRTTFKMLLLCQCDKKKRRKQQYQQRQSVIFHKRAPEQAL

As for `CN(CCN1CCC(OC(=O)Nc2ccccc2-c2ccccc2)CC1)C(=O)c1ccc(CN2CCC(C(N)=O)CC2)cc1` [Example 1, Biphenyl-2-ylcarbamic Acid 1-(2-{[4-(4-Carbamoylpiperidin-1-ylmethyl)benzoyl]methylamino}ethyl)piperidin-4-yl Ester], the Ki on hM3 receptor is less than 5 nM. For the same molecule, the “PD2(50) for ACh-induced bronchoconstriction” value in experiment [1] is recorded as “less than 200 μg/mL”.

(Values after patent US12258316B2, “Biphenyl compounds useful as muscarinic receptor antagonists” (THERAVANCE BIOPHARMA R&D IP, LLC, priority 2004, dated 2025).)
